# Laboratory results taken from patent US20260049072A1, “HETEROCYCLIC COMPOUND FOR INDUCING DEGRADATION OF MUTANT KRAS PROTEIN” (Astellas Pharma Inc., priority 2022, published 2026).
# Experiments:
# [1] = target: T1, RAS G12V (Homo sapiens, UniProt P01116, G12V); experiment: RAS G12V degradation activity, Cell ELISA, PA-TU-8902; format: cell-based; conditions: PA-TU-8902 cells, 24 hours, 100% = Example compound 17 at 1 μM; read-out: DC50 (RAS G12V 50% degradation value)
# T1 construct: host or cells: PA-TU-8902 human pancreatic cancer cells
# T1 sequence (P01116 1-188 isoform P01116-2 G12V): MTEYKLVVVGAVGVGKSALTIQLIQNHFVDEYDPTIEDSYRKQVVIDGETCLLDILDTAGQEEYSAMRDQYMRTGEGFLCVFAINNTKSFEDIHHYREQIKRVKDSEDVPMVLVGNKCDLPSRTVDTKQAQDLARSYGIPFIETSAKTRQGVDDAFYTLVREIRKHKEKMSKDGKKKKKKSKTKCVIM
# Procedure, shortened: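 PA-TU-8902 cells (KRAS G12V) treated 24 h at 37 °C with 10 concentrations, 3 μM to 0.1 nM final; fixed, permeabilised, stained with G12V-specific and β-actin antibodies, infrared fluorescence read. Degradation scaled from DMSO (0%) to 1 μM reference degrader (100%), actin-normalised; DC50 by Sigmoid-Emax regression.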
# [2] = tested on: PA-TU-8902 cells; experiment: Non-anchorage-dependent cell growth inhibition (spheroid 3D culture), PA-TU-8902; format: cell-based, human; conditions: Homo sapiens, PaTu 8902, 144 h; KRAS G12V mutant-positive, 3D spheroid, six days, CellTiter-Glo 2.0; read-out: PA-TU-8902 IC50
# Procedure, shortened: (§1)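 Human pancreatic lines (PA-TU-8902 KRAS G12V, AsPC-1 G12D, MIA PaCa-2 G12C) grown as spheroids at 5×10^2 cells/well in low-adhesion round-bottom plates; MIA PaCa-2 in RPMI-1640 with 10% FBS. Compounds added next day (6-9 points, 3 μM to 0.3 nM final) for six days at 37 °C, 5% CO2. CellTiter-Glo luminescence, IC50 by Sigmoid-Emax regression versus DMSO and cell-free controls.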
# [3] = tested on: AsPC-1 cells; experiment: Non-anchorage-dependent cell growth inhibition (spheroid 3D culture), AsPC-1; format: cell-based; conditions: Homo sapiens, ASPC1, 144 h; KRAS G12D mutant-positive, 3D spheroid, six days, CellTiter-Glo 2.0; read-out: AsPC-1 IC50
# Procedure, shortened: as §1
# [4] = tested on: MIA PaCa-2 cells; experiment: Non-anchorage-dependent cell growth inhibition (spheroid 3D culture), MIA PaCa-2; format: cell-based; conditions: Homo sapiens, MIA PaCa-2, 144 h; KRAS G12C mutant-positive, 3D spheroid, six days, CellTiter-Glo 2.0; read-out: MIA PaCa-2 IC50
# Procedure, shortened: as §1
smiles,measurement,setting,value
"CO[C@@H](C)COc1cc(OC2CN(C(=O)O[C@H]3C[C@@H](N(C)C)C3)C2)c2cc(C3CC3)c(-c3c(C)c(F)cc4[nH]ncc34)c(OCc3ccc(-c4cn([C@H](C(=O)N5C[C@H](O)C[C@H]5C(=O)N[C@@H](CO)c5ccc(-n6cncn6)cc5)C(C)C)nn4)cc3)c2n1 (atropisomer, axis not shown; (M)) [Example 13, (1s,3R)-3-(dimethylamino)cyclobutyl 3-({(7M)-6-cyclopropyl-7-(6-fluoro-5-methyl-1H-indazol-4-yl)-8-{[4-(1-{(2S)-1-[(2S,4R)-4-hydroxy-2-({(1R)-2-hydroxy-1-[4-(1H-1,2,4-triazol-1-yl)phenyl]ethyl}carbamoyl)pyrrolidin-1-yl]-3-methyl-1-oxobutan-2-yl}-1H-1,2,3-triazol-4-yl)phenyl]methoxy}-2-[(2S)-2-methoxypropoxy]quinolin-4-yl}oxy)azetidine-1-carboxylate]",DC50,[1],11 nM
same,IC50,[2],36 nM
same,IC50,[3],18 nM
same,IC50,[4],13 nM
